Test results reported in patent US11452717B2, “Small molecule activators of nicotinamide phosphoribosyltransferase (NAMPT) and uses thereof” (Sanford Burnham Prebys Medical Discovery Institute, priority 2017, dated 2022).

target: NAMPT enzyme (Homo sapiens (Human), UniProt P43490); assay: Enzyme Assay and NMN Detection (NAMPT reaction, fluorescence detection of NMN); type: biochemical; settings: Table B-1; NAMPT activation, NMN formation
Summary of the method: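 Reaction in 50 mM HEPES pH 7.5, 5 mM MgCl2, 0.1% Prionex, 0.005% Tween 20, 1 mM TCEP at room temperature, with 16 nM NAMPT, 120 uM ATP, 5 uM nicotinamide, 6.25 uM PRPP, 0.04 U/ml pyrophosphatase for 2 h. Stopped with acetophenone/KOH then formic acid; NMN quantified by fluorescence (ex380/em460) against calibration curve.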

NAMPT enzyme, sequence (P43490 whole entry, species assumed): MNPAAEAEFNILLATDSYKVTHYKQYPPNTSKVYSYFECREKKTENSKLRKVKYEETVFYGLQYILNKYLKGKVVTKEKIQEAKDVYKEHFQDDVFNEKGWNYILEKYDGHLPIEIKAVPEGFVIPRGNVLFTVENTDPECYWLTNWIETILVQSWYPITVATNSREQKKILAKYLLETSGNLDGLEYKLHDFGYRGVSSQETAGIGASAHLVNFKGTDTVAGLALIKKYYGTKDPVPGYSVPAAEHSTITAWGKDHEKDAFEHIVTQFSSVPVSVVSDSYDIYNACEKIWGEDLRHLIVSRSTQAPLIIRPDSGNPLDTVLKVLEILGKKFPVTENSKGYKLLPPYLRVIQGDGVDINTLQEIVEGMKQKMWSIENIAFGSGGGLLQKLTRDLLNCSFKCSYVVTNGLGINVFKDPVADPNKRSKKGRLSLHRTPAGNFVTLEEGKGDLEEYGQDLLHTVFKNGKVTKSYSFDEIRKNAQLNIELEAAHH

Structure (SMILES) | EC50 [nM]
O=C(NCc1cn[nH]c1)Nc1ccc(C(=O)Nc2cccc(Cl)c2)cc1 [N-(3-Chloro-phenyl)-4-[3-(1H-pyrazol-4-ylmethyl)-ureido]-benzamide] | 100 to 2000
COc1cccc(CNS(=O)(=O)c2ccc(NC(=O)NCc3cn[nH]c3)cc2)c1 [N-(3-Methoxy-benzyl)-4-[3-(1H-pyrazol-4-ylmethyl)-ureido]-benzenesulfonamide] | 100 to 2000
O=C(NCc1cn[nH]c1)Nc1ccc(NS(=O)(=O)Cc2ccccc2)cc1 [N-(4-(3-((1H-pyrazol-4-yl)methyl)ureido)phenyl)-1-phenylmethanesulfonamide] | < 100
O=C(NCc1cn[nH]c1)Nc1ccc(S(=O)(=O)NCc2ccc(Cl)cc2)cc1 [N-(4-Chloro-benzyl)-4-[3-(1H-pyrazol-4-ylmethyl)-ureido]-benzenesulfonamide] | 100 to 2000
COc1ccc(CNS(=O)(=O)c2ccc(NC(=O)NCc3cn[nH]c3)cc2)cc1 [N-(4-Methoxy-benzyl)-4-[3-(1H-pyrazol-4-ylmethyl)-ureido]-benzenesulfonamide] | < 100

same assay, conditions: Table B-2; NAMPT activation, NMN formation

Structure (SMILES) | EC50 [nM]
O=C(NCc1ccncc1)Nc1ccc(S(=O)(=O)NCc2cccc(Cl)c2)cc1 [N-(3-Chloro-benzyl)-4-(3-pyridin-4-ylmethyl-ureido)-benzenesulfonamide] | 100 to 2000
N#Cc1cccc(CNS(=O)(=O)c2ccc(NC(=O)NCc3ccncc3)cc2)c1 [N-(3-Cyano-benzyl)-4-(3-pyridin-4-ylmethyl-ureido)-benzenesulfonamide] | 100 to 2000
CN(C)c1cccc(CNS(=O)(=O)c2ccc(NC(=O)NCc3ccncc3)cc2)c1 [N-(3-Dimethylamino-benzyl)-4-(3-pyridin-4-ylmethyl-ureido)-benzenesulfonamide] | 100 to 2000
COc1cccc(CNS(=O)(=O)c2ccc(NC(=O)NCc3ccncc3)cc2)c1 [N-(3-Methoxy-benzyl)-4-(3-pyridin-4-ylmethyl-ureido)-benzenesulfonamide] | 100 to 2000
COc1cccc(NS(=O)(=O)c2ccc(NC(=O)NCc3ccncc3)cc2)c1 [N-(3-Methoxy-phenyl)-4-(3-pyridin-4-ylmethyl-ureido)-benzenesulfonamide] | 100 to 2000
COCCCNS(=O)(=O)c1ccc(NC(=O)NCc2ccncc2)cc1 [N-(3-Methoxy-propyl)-4-(3-pyridin-4-ylmethyl-ureido)-benzenesulfonamide] | 100 to 2000
Cc1cccc(CNS(=O)(=O)c2ccc(NC(=O)NCc3ccncc3)cc2)c1 [N-(3-Methyl-benzyl)-4-(3-pyridin-4-ylmethyl-ureido)-benzenesulfonamide] | 100 to 2000
O=C(NCc1ccncc1)Nc1ccc(C(=O)NCc2cccc(Cl)c2)cc1 [N-(3-chlorobenzyl)-4-(3-(pyridin-4-ylmethyl)ureido)benzamide] | > 20000
O=C(NCc1ccncc1)Nc1ccc(C(=O)Nc2cccc(Cl)c2)cc1 [N-(3-chlorophenyl)-4-(3-(pyridin-4-ylmethyl)ureido)benzamide] | 100 to 2000
CCOCCCNC(=O)c1ccc(NC(=O)NCc2ccncc2)cc1 [N-(3-ethoxypropyl)-4-(3-(pyridin-4-ylmethyl)ureido)benzamide] | 100 to 2000
O=C(NCc1ccncc1)Nc1ccc(C(=O)NCc2cccc(F)c2)cc1 [N-(3-fluorobenzyl)-4-(3-(pyridin-4-ylmethyl)ureido)benzamide] | > 20000
O=C(NCc1ccncc1)Nc1ccc(S(=O)(=O)NCc2cccc(F)c2)cc1 [N-(3-fluorobenzyl)-4-(3-(pyridin-4-ylmethyl)ureido)benzenesulfonamide] | 100 to 2000
O=C(NCc1ccncc1)Nc1ccc(C(=O)Nc2cccc(F)c2)cc1 [N-(3-fluorophenyl)-4-(3-(pyridin-4-ylmethyl)ureido)benzamide] | 100 to 2000
COc1cccc(CNC(=O)c2ccc(NC(=O)NCc3ccncc3)cc2)c1 [N-(3-methoxybenzyl)-4-(3-(pyridin-4-ylmethyl)ureido)benzamide] | > 20000
COc1cccc(NC(=O)c2ccc(NC(=O)NCc3ccncc3)cc2)c1 [N-(3-methoxyphenyl)-4-(3-(pyridin-4-ylmethyl)ureido)benzamide] | 100 to 2000
Cc1cccc(CNC(=O)c2ccc(NC(=O)NCc3ccncc3)cc2)c1 [N-(3-methylbenzyl)-4-(3-(pyridin-4-ylmethyl)ureido)benzamide] | > 20000
Cc1cc(NC(=O)c2ccc(NC(=O)NCc3ccncc3)cc2)on1 [N-(3-methylisoxazol-5-yl)-4-(3-(pyridin-4-ylmethyl)ureido)benzamide] | 2000 to 5000
Cc1nc(NS(=O)(=O)c2ccc(NC(=O)NCc3ccncc3)cc2)oc1C [N-(4,5-Dimethyl-oxazol-2-yl)-4-(3-pyridin-4-ylmethyl-ureido)-benzenesulfonamide] | > 20000
CN(C)Cc1ccc(CNS(=O)(=O)c2ccc(NC(=O)NCc3ccncc3)cc2)cc1 [N-(4-((dimethylamino)methyl)benzyl)-4-(3-(pyridin-4-ylmethyl)ureido)benzenesulfonamide] | < 100
CN(C)c1ccc(NC(=O)c2ccc(NC(=O)NCc3ccncc3)cc2)cc1 [N-(4-(dimethylamino)phenyl)-4-(3-(pyridin-4-ylmethyl)ureido)benzamide] | 100 to 2000
COCc1ccc(NC(=O)c2ccc(NC(=O)NCc3ccncc3)cc2)cc1 [N-(4-(methoxymethyl)phenyl)-4-(3-(pyridin-4-ylmethyl)ureido)benzamide] | > 20000

Structure (SMILES) | EC50 [nM]
CN(C)c1ccc(CNS(=O)(=O)c2ccc(NC(=O)NCc3ccncc3)cc2)cc1 [N-(4-Dimethylamino-benzyl)-4-(3-pyridin-4-ylmethyl-ureido)-benzenesulfonamide] | 100 to 2000
CS(=O)(=O)c1ccc(CNS(=O)(=O)c2ccc(NC(=O)NCc3ccncc3)cc2)cc1 [N-(4-Methanesulfonyl-benzyl)-4-(3-pyridin-4-ylmethyl-ureido)-benzenesulfonamide] | 100 to 2000
COc1ccc(NS(=O)(=O)c2ccc(NC(=O)NCc3ccncc3)cc2)cc1 [N-(4-Methoxy-phenyl)-4-(3-pyridin-4-ylmethyl-ureido)-benzenesulfonamide] | 100 to 2000
COCc1ccc(CNS(=O)(=O)c2ccc(NC(=O)NCc3ccncc3)cc2)cc1 [N-(4-Methoxymethyl-benzyl)-4-(3-pyridin-4-ylmethyl-ureido)-benzenesulfonamide] | 100 to 2000
Cc1ccnc(NS(=O)(=O)c2ccc(NC(=O)NCc3ccncc3)cc2)n1 [N-(4-Methyl-pyrimidin-2-yl)-4-(3-pyridin-4-ylmethyl-ureido)-benzenesulfonamide] | 100 to 2000
O=C(NCc1ccncc1)Nc1ccc(C(=O)NCc2ccc(Cl)cc2)cc1 [N-(4-chlorobenzyl)-4-(3-(pyridin-4-ylmethyl)ureido)benzamide] | > 20000
O=C(NCc1ccncc1)Nc1ccc(S(=O)(=O)NCc2ccc(Cl)cc2)cc1 [N-(4-chlorobenzyl)-4-(3-(pyridin-4-ylmethyl)ureido)benzenesulfonamide] | 100 to 2000
O=C(NCc1ccncc1)Nc1ccc(C(=O)Nc2ccc(Cl)cc2)cc1 [N-(4-chlorophenyl)-4-(3-(pyridin-4-ylmethyl)ureido)benzamide] | 100 to 2000
N#Cc1ccc(CNS(=O)(=O)c2ccc(NC(=O)NCc3ccncc3)cc2)cc1 [N-(4-cyanobenzyl)-4-(3-(pyridin-4-ylmethyl)ureido)benzenesulfonamide] | 100 to 2000
N#Cc1ccc(NC(=O)c2ccc(NC(=O)NCc3ccncc3)cc2)cc1 [N-(4-cyanophenyl)-4-(3-(pyridin-4-ylmethyl)ureido)benzamide] | 100 to 2000
CCOc1ccc(NC(=O)c2ccc(NC(=O)NCc3ccncc3)cc2)cc1 [N-(4-ethoxyphenyl)-4-(3-(pyridin-4-ylmethyl)ureido)benzamide] | 100 to 2000
O=C(NCc1ccncc1)Nc1ccc(C(=O)NCc2ccc(F)cc2)cc1 [N-(4-fluorobenzyl)-4-(3-(pyridin-4-ylmethyl)ureido)benzamide] | > 20000
O=C(NCc1ccncc1)Nc1ccc(S(=O)(=O)NCc2ccc(F)cc2)cc1 [N-(4-fluorobenzyl)-4-(3-(pyridin-4-ylmethyl)ureido)benzenesulfonamide] | 100 to 2000
O=C(NCc1ccncc1)Nc1ccc(C(=O)NCCc2ccc(F)cc2)cc1 [N-(4-fluorophenethyl)-4-(3-(pyridin-4-ylmethyl)ureido)benzamide] | 100 to 2000
O=C(NCc1ccncc1)Nc1ccc(C(=O)Nc2ccc(F)cc2)cc1 [N-(4-fluorophenyl)-4-(3-(pyridin-4-ylmethyl)ureido)benzamide] | 100 to 2000
CC(C)Oc1ccc(NC(=O)c2ccc(NC(=O)NCc3ccncc3)cc2)cc1 [N-(4-isopropoxyphenyl)-4-(3-(pyridin-4-ylmethyl)ureido)benzamide] | 100 to 2000
COc1ccc(NC(=O)c2ccc(NC(=O)NCc3ccncc3)cc2)cc1C [N-(4-methoxy-3-methylphenyl)-4-(3-(pyridin-4-ylmethyl)ureido)benzamide] | 100 to 2000
COc1ccc(CNC(=O)c2ccc(NC(=O)NCc3ccncc3)cc2)cc1 [N-(4-methoxybenzyl)-4-(3-(pyridin-4-ylmethyl)ureido)benzamide] | > 20000
COc1ccc(CNS(=O)(=O)c2ccc(NC(=O)NCc3ccncc3)cc2)cc1 [N-(4-methoxybenzyl)-4-(3-(pyridin-4-ylmethyl)ureido)benzenesulfonamide] | 100 to 2000
COc1ccc(NC(=O)c2ccc(NC(=O)NCc3ccncc3)cc2)cc1 [N-(4-methoxyphenyl)-4-(3-(pyridin-4-ylmethyl)ureido)benzamide] | 100 to 2000
Cc1ccc(CNC(=O)c2ccc(NC(=O)NCc3ccncc3)cc2)cc1 [N-(4-methylbenzyl)-4-(3-(pyridin-4-ylmethyl)ureido)benzamide] | > 20000

same assay, conditions: Table B-4; NAMPT activation, NMN formation

Structure (SMILES) | EC50 [nM]
O=C(NCc1cn[nH]c1)Nc1ccc(S(=O)(=O)NCc2cccc(F)c2)cc1 [N-(3-Fluoro-benzyl)-4-[3-(1H-pyrazol-4-ylmethyl)-ureido]-benzenesulfonamide] | 100 to 2000
Cc1ccc(CNS(=O)(=O)c2ccc(NC(=O)NCc3cn[nH]c3)cc2)cc1 [N-(4-Methyl-benzyl)-4-[3-(1H-pyrazol-4-ylmethyl)-ureido]-benzenesulfonamide] | 100 to 2000
